# Data published in PMC10175095 (Therapeutic drug monitoring, 2023).
# Tests used:
# [1] = major systemic metabolite; cited from earlier work
# [2] = Pre-processed stability in human plasma; assay type: in vitro ADME; settings: 2.5 h
# [3] = Processed sample stability in final extract; assay type: physicochemical; settings: 4°C, autosampler, 25.1 h
# [4] = Freeze-thaw stability of unprocessed plasma samples; assay type: in vitro ADME; settings: human plasma, 3 freeze (-80°C)-thaw cycles
# [5] = Reinjection stability in final extract; assay type: physicochemical; settings: reinjected, 4°C, autosampler, 25.95 h
# CDK4/6 = settings: compared with abemaciclib; cited from earlier work
# [6] = Long-term stability of unprocessed plasma samples at −80°C; assay type: in vitro ADME; settings: human plasma
# [7] = requires confirmation in prospective studies; cited from earlier work
# [8] = RT (20–25°C), yellow light, nominal 15 ng/mL
# [9] = RT (20–25°C), yellow light, nominal 1500 ng/mL
smiles,measurement,setting,value
Cc1nc2c(F)cc(-c3nc(Nc4ccc(CN5CCNCC5)cn4)ncc3F)cc2n1C(C)C [Abemaciclib-M2],Share of the total circulating analytes in plasma,[1],25%
same,Accuracy vs fresh QCs,"[2]; 37°C, dark, nominal 15 ng/mL",95.8%
same,Accuracy vs. nominal concentration,"[2]; 37°C, dark, nominal 15 ng/mL",101%
same,Mean measured concentration,"[2]; 37°C, dark, nominal 15 ng/mL",15.1 ng/mL
same,Accuracy vs fresh QCs,"[2]; 37°C, dark, nominal 1500 ng/mL",103%
same,Accuracy vs. nominal concentration,"[2]; 37°C, dark, nominal 1500 ng/mL",103%
same,Mean measured concentration,"[2]; 37°C, dark, nominal 1500 ng/mL",1540 ng/mL
same,Accuracy vs fresh QCs,[2]; [8],96.6%
same,Accuracy vs. nominal concentration,[2]; [8],102%
same,Mean measured concentration,[2]; [8],15.3 ng/mL
same,Accuracy vs fresh QCs,[2]; [9],104%
same,Accuracy vs. nominal concentration,[2]; [9],104%
same,Mean measured concentration,[2]; [9],1557 ng/mL
same,Accuracy vs fresh QCs,[3]; nominal 15 ng/mL,100%
same,Accuracy vs. nominal concentration,[3]; nominal 15 ng/mL,110%
same,Mean measured concentration,[3]; nominal 15 ng/mL,16.5 ng/mL
same,Accuracy vs fresh QCs,[3]; nominal 1500 ng/mL,102%
same,Accuracy vs. nominal concentration,[3]; nominal 1500 ng/mL,102%
same,Mean measured concentration,[3]; nominal 1500 ng/mL,1537 ng/mL
same,Accuracy vs fresh QCs,[4]; nominal 15 ng/mL,98.2%
same,Accuracy vs. nominal concentration,[4]; nominal 15 ng/mL,100%
same,Mean measured concentration,[4]; nominal 15 ng/mL,15.0 ng/mL
same,Accuracy vs fresh QCs,[4]; nominal 1500 ng/mL,98.2%
same,Accuracy vs. nominal concentration,[4]; nominal 1500 ng/mL,99.6%
same,Mean measured concentration,[4]; nominal 1500 ng/mL,1493 ng/mL
same,Accuracy vs fresh QCs,[5]; nominal 15 ng/mL,103%
same,Accuracy vs. nominal concentration,[5]; nominal 15 ng/mL,113%
same,Mean measured concentration,[5]; nominal 15 ng/mL,16.9 ng/mL
same,Accuracy vs fresh QCs,[5]; nominal 150 ng/mL,96.5%
same,Accuracy vs. nominal concentration,[5]; nominal 150 ng/mL,104%
same,Mean measured concentration,[5]; nominal 150 ng/mL,155 ng/mL
same,Accuracy vs fresh QCs,[5]; nominal 1500 ng/mL,103%
same,Accuracy vs. nominal concentration,[5]; nominal 1500 ng/mL,104%
same,Mean measured concentration,[5]; nominal 1500 ng/mL,1557 ng/mL
same,Pharmacological potency vs parent drug,CDK4/6,equipotent
same,Accuracy vs fresh QCs,"[6]; 3 months, nominal 15 ng/mL",107%
same,Accuracy vs. nominal concentration,"[6]; 3 months, nominal 15 ng/mL",97.6%
same,Mean measured concentration,"[6]; 3 months, nominal 15 ng/mL",14.6 ng/mL
same,Accuracy vs fresh QCs,"[6]; 3 months, nominal 150 ng/mL",104%
same,Accuracy vs. nominal concentration,"[6]; 3 months, nominal 150 ng/mL",100%
same,Mean measured concentration,"[6]; 3 months, nominal 150 ng/mL",150 ng/mL
same,Accuracy vs fresh QCs,"[6]; 3 months, nominal 1500 ng/mL",98.7%
same,Accuracy vs. nominal concentration,"[6]; 3 months, nominal 1500 ng/mL",100%
same,Mean measured concentration,"[6]; 3 months, nominal 1500 ng/mL",1503 ng/mL
same,Accuracy vs fresh QCs,"[6]; 7 months, nominal 15 ng/mL",102%
same,Accuracy vs. nominal concentration,"[6]; 7 months, nominal 15 ng/mL",96.9%
same,Mean measured concentration,"[6]; 7 months, nominal 15 ng/mL",14.5 ng/mL
same,Accuracy vs fresh QCs,"[6]; 7 months, nominal 150 ng/mL",92.4%
same,Accuracy vs. nominal concentration,"[6]; 7 months, nominal 150 ng/mL",102%
same,Mean measured concentration,"[6]; 7 months, nominal 150 ng/mL",154 ng/mL
same,Accuracy vs fresh QCs,"[6]; 7 months, nominal 1500 ng/mL",93.8%
same,Accuracy vs. nominal concentration,"[6]; 7 months, nominal 1500 ng/mL",93.6%
same,Mean measured concentration,"[6]; 7 months, nominal 1500 ng/mL",1403 ng/mL
same,Accuracy vs fresh QCs,"[6]; 12 months, nominal 15 ng/mL",111%
same,Accuracy vs. nominal concentration,"[6]; 12 months, nominal 15 ng/mL",101%
same,Mean measured concentration,"[6]; 12 months, nominal 15 ng/mL",15.1 ng/mL
same,Accuracy vs fresh QCs,"[6]; 12 months, nominal 150 ng/mL",95.6%
same,Accuracy vs. nominal concentration,"[6]; 12 months, nominal 150 ng/mL",110%
same,Mean measured concentration,"[6]; 12 months, nominal 150 ng/mL",166 ng/mL
same,Accuracy vs fresh QCs,"[6]; 12 months, nominal 1500 ng/mL",96.8%
same,Accuracy vs. nominal concentration,"[6]; 12 months, nominal 1500 ng/mL",104%
same,Mean measured concentration,"[6]; 12 months, nominal 1500 ng/mL",1567 ng/mL
"CN(C)C(=O)c1cc2cnc(Nc3ccc(N4CCNCC4)cn3)nc2n1C1CCCC1 [Ribociclib, ribociclib]",Accuracy vs fresh QCs,"[2]; 37°C, dark, nominal 15 ng/mL",97.8%
same,Accuracy vs. nominal concentration,"[2]; 37°C, dark, nominal 15 ng/mL",106%
same,Mean measured concentration,"[2]; 37°C, dark, nominal 15 ng/mL",15.9 ng/mL
same,Accuracy vs fresh QCs,"[2]; 37°C, dark, nominal 1500 ng/mL",102%
same,Accuracy vs. nominal concentration,"[2]; 37°C, dark, nominal 1500 ng/mL",100%
same,Mean measured concentration,"[2]; 37°C, dark, nominal 1500 ng/mL",1500 ng/mL
same,Accuracy vs fresh QCs,[2]; [8],98.0%
same,Accuracy vs. nominal concentration,[2]; [8],106%
same,Mean measured concentration,[2]; [8],15.9 ng/mL
same,Accuracy vs fresh QCs,[2]; [9],102%
same,Accuracy vs. nominal concentration,[2]; [9],100%
same,Mean measured concentration,[2]; [9],1503 ng/mL
same,Accuracy vs fresh QCs,[3]; nominal 15 ng/mL,99.2%
same,Accuracy vs. nominal concentration,[3]; nominal 15 ng/mL,112%
same,Mean measured concentration,[3]; nominal 15 ng/mL,16.7 ng/mL
same,Accuracy vs fresh QCs,[3]; nominal 1500 ng/mL,99.8%
same,Accuracy vs. nominal concentration,[3]; nominal 1500 ng/mL,98.7%
same,Mean measured concentration,[3]; nominal 1500 ng/mL,1480 ng/mL
same,Accuracy vs fresh QCs,[4]; nominal 15 ng/mL,98.3%
same,Accuracy vs. nominal concentration,[4]; nominal 15 ng/mL,100%
same,Mean measured concentration,[4]; nominal 15 ng/mL,15.0 ng/mL
same,Accuracy vs fresh QCs,[4]; nominal 1500 ng/mL,97.1%
same,Accuracy vs. nominal concentration,[4]; nominal 1500 ng/mL,97.1%
same,Mean measured concentration,[4]; nominal 1500 ng/mL,1457 ng/mL
same,Accuracy vs fresh QCs,[5]; nominal 15 ng/mL,97.8%
same,Accuracy vs. nominal concentration,[5]; nominal 15 ng/mL,110%
same,Mean measured concentration,[5]; nominal 15 ng/mL,16.5 ng/mL
same,Accuracy vs fresh QCs,[5]; nominal 150 ng/mL,101%
same,Accuracy vs. nominal concentration,[5]; nominal 150 ng/mL,107%
same,Mean measured concentration,[5]; nominal 150 ng/mL,161 ng/mL
same,Accuracy vs fresh QCs,[5]; nominal 1500 ng/mL,101%
same,Accuracy vs. nominal concentration,[5]; nominal 1500 ng/mL,100%
same,Mean measured concentration,[5]; nominal 1500 ng/mL,1503 ng/mL
same,Proposed target Cmin for TDM,[7],711 ng/mL
same,Accuracy vs fresh QCs,"[6]; 3 months, nominal 15 ng/mL",106%
same,Accuracy vs. nominal concentration,"[6]; 3 months, nominal 15 ng/mL",102%
same,Mean measured concentration,"[6]; 3 months, nominal 15 ng/mL",15.3 ng/mL
same,Accuracy vs fresh QCs,"[6]; 3 months, nominal 150 ng/mL",105%
same,Accuracy vs. nominal concentration,"[6]; 3 months, nominal 150 ng/mL",98.7%
same,Mean measured concentration,"[6]; 3 months, nominal 150 ng/mL",148 ng/mL
same,Accuracy vs fresh QCs,"[6]; 3 months, nominal 1500 ng/mL",104%
same,Accuracy vs. nominal concentration,"[6]; 3 months, nominal 1500 ng/mL",94.2%
same,Mean measured concentration,"[6]; 3 months, nominal 1500 ng/mL",1413 ng/mL
same,Accuracy vs fresh QCs,"[6]; 7 months, nominal 15 ng/mL",90.3%
same,Accuracy vs. nominal concentration,"[6]; 7 months, nominal 15 ng/mL",98.4%
same,Mean measured concentration,"[6]; 7 months, nominal 15 ng/mL",14.8 ng/mL
same,Accuracy vs fresh QCs,"[6]; 7 months, nominal 150 ng/mL",86.0%
same,Accuracy vs. nominal concentration,"[6]; 7 months, nominal 150 ng/mL",106%
same,Mean measured concentration,"[6]; 7 months, nominal 150 ng/mL",160 ng/mL
same,Accuracy vs fresh QCs,"[6]; 7 months, nominal 1500 ng/mL",88.8%
same,Accuracy vs. nominal concentration,"[6]; 7 months, nominal 1500 ng/mL",93.6%
same,Mean measured concentration,"[6]; 7 months, nominal 1500 ng/mL",1403 ng/mL
same,Accuracy vs fresh QCs,"[6]; 12 months, nominal 15 ng/mL",107%
same,Accuracy vs. nominal concentration,"[6]; 12 months, nominal 15 ng/mL",105%
same,Mean measured concentration,"[6]; 12 months, nominal 15 ng/mL",15.7 ng/mL
same,Accuracy vs fresh QCs,"[6]; 12 months, nominal 150 ng/mL",105%
same,Accuracy vs. nominal concentration,"[6]; 12 months, nominal 150 ng/mL",108%
same,Mean measured concentration,"[6]; 12 months, nominal 150 ng/mL",161 ng/mL
same,Accuracy vs fresh QCs,"[6]; 12 months, nominal 1500 ng/mL",101%
same,Accuracy vs. nominal concentration,"[6]; 12 months, nominal 1500 ng/mL",108%
same,Mean measured concentration,"[6]; 12 months, nominal 1500 ng/mL",1613 ng/mL
